{"source": "patent US20210252173A1", "about": "“STABILIZED POLYUNSATURATED COMPOUNDS AND USES THEREOF” (RETROTOPE, INC., priority 2018, published 2021)", "key": {"[1]": {"system": "patient with late onset Tay-Sachs disease (LOTS)", "test": "Case study in a single patient with late onset Tay-Sachs disease: ADL, 25FWT, 6MWD, tolerability", "assay_type": "in vivo, human", "details": "2.7 g BID; for Composite ADL Score: baseline 0; for 25FWT: baseline 12.7", "description": "In this example, a case study of using 11,11-D2-linoleic acid ethyl ester to treat a single patient with late onset Tay-Sachs disease (LOTS) and the study results was reported."}, "[2]": {"details": "human, in vivo", "protocol": "Design/Methods: 11,11-D2-linoleic acid ethyl ester was administered to the patient at 2.7 g (BID) and periodic repeat assessments including baseline measurement of PK, activities of daily living (ADL), 25 foot walk time (25FWT), and 6 minute walk distance (6MWD) were made. In particular, ADLs were measured individually on a scale of 0-5 across a 12 element panel representing speech, strength, coordination, etc."}, "in vivo": {"test": "in vivo", "design": "species or system mice and rats", "details": "rat", "protocol": "Single- and repeat-dose studies are conducted in mice and rats using both oral gavage and dietary administration of substituted compounds as described herein (e.g., D-PUFA and ester thereof) for up to 26 weeks. […] The NOAELs established in the 8- and 26-week studies correspond to an average consumption of the substituted compounds studied in the amount of ˜362 and ˜452 mg/kg, respectively. The high dose diets in these studies contained no natural LA. […] This is consistent with the substituted compounds as described herein (e.g., D-PUFA and ester thereof) (di-deutero linoleic acid) being, for dietary purposes, equivalent to and biologically interchangeable with normal dietary LA as a sole source of LA by the rats in this study. […] The body weights, organ weights, percent of each organ composed of PUFAs, distribution of PUFA species in each tissue, and the PUFA composition of red blood cells are not changed versus controls."}, "[3]": {"system": "patient with Infantile Neuroaxonal Dystrophy (INAD), mutation in both copies of the PLA2G6 gene", "assay_type": "in vivo, human", "description": "(§1) A study in the fatal neurodegenerative disease, Infantile Neuroaxonal Dystrophy (INAD) was initiated in March 2017. At study onset, the subject with a genetic mutation in both copies of the PLA2G6 gene, was mostly unresponsive to stimuli and unable to perform virtually any activity. All normal development milestones previously acquired had been lost. Prognosis was that a feeding tube would be required in the near term progression of the disease. The patient received dosing of a D-PUFA (11,11-D2-linoleic acid), 1.8 g twice a day, for a six month trial under an Expanded Access (Compassionate Use) protocol. As they were unable to swallow a pill, soft gels containing the D-PUFA were placed in warm liquid (water or milk), pierced with a fork, and the active oil pressed into the liquid, which was then soaked into food or a cookie, and administered.\nFIG. 1 summarizes the baseline and one year treatment status of the patient (degree of impairment: (0) for severely impaired, (+1) for moderately impaired, (+2) for mildly impaired or no impairment).\nAfter 2 months on drug, […] regained sufficient bulbar function to terminate syringe feeding of liquids and returned to drinking from a child's sippy cup.\n(§2) One month and three month plasma level of deuterated polyunsaturated fatty acid was at steady state at approximately 44% total (dietary plus modified) linoleic acid, indicating excellent uptake and absorption of a therapeutic level of drug (>˜10-15%). Deuterated arachidonic acid was observed as present in the plasma at 0.6% and 3.0% of total arachidonic acid at month one and three months; respectively.\nINAD is a strictly progressive disease, only worsening with time. Stabilization of regressions and recovery of lost milestones indicated effectiveness of the test treatment in a single, severely affected INAD patient."}, "[4]": {"details": "female, human, in vivo", "description": "as §1, §2"}, "murine FRDA cell model": {"system": "murine FRDA cell model", "details": "cited from earlier work"}, "[5]": {"system": "human fibroblast FRDA model", "details": "cited from earlier work"}, "yeast model of FRDA": {"system": "yeast model of FRDA", "details": "cited from earlier work"}, "murine model of FRDA": {"system": "murine model of FRDA", "details": "Abeti et al. 2016; cited from earlier work"}, "H9C2 myoblasts": {"system": "H9C2 myoblasts", "details": "other oxidative stress paradigms; cited from earlier work"}}, "note": "Where two headings read alike, the source gives them in different places."}
{"smiles": "[2H]C([2H])(/C=C\\CCCCC)/C=C\\CCCCCCCC(=O)OCC", "note": "[11,11-D2-linoleic acid ethyl ester]", "values": [{"measurement": "disease progression", "setting": "[1]", "value": "Early efficacy signs of inhibition of disease progression and some regression were seen"}, {"measurement": "tolerability / toxicities", "setting": "[1]", "value": "well tolerated with no toxicities reported"}, {"measurement": "# of ADLs improved", "setting": "[1]; 30 d", "value": 6}, {"measurement": "Composite ADL Score", "setting": "[1]; 30 d, 12 element panel, scale 0-5", "value": "+6"}, {"measurement": "25FWT", "setting": "[1]; 30 d", "value": 12.1, "unit": "s"}, {"measurement": "# of ADLs improved", "setting": "[1]; 120 d", "value": 8}, {"measurement": "Composite ADL Score", "setting": "[1]; 120 d", "value": "+9"}, {"measurement": "25FWT", "setting": "[1]; 120 d", "value": 11.2, "unit": "s"}, {"measurement": "D-LA(%) D-LA + H-LA Plasma", "setting": "[2]", "value": 36, "unit": "%"}, {"measurement": "D-LA(%) D-LA + H-LA RBC", "setting": "[2]", "value": 28, "unit": "%"}]}
{"smiles": "[2H]C([2H])(/C=C\\CCCCC)/C=C\\CCCCCCCC(=O)O", "note": "[11,11-D2-linoleic acid, 11,11-Dideutero-cis,cis-9,12-Octadecadienoic acid]", "values": [{"measurement": "NOAEL at 8 weeks", "setting": "in vivo", "value": "~362", "unit": "mg/kg"}, {"measurement": "NOAEL at 26 weeks", "setting": "in vivo", "value": "~452", "unit": "mg/kg"}, {"measurement": "progression of disease, clinical examination", "setting": "[3]; 3 months, since start of trial, n=1", "value": "no progression of disease"}, {"measurement": "qualitative measures in videotaped sessions (eye tracking, responsiveness, head control, lifting, reaching and grasping)", "setting": "[3]; after 6 months", "value": "improved in qualitative measures"}, {"measurement": "drug related adverse events", "setting": "[3]; human, in vivo", "value": "no drug related adverse events of any sort reported"}, {"measurement": "safety and tolerability", "setting": "[3]; human, in vivo", "value": "safe and well-tolerated"}, {"measurement": "ability to grasp", "setting": "[3]; parents' report at 4 months", "value": "regained ability to grasp spoon and hold"}, {"measurement": "constipation", "setting": "[3]; parents' report at 4 months", "value": "constipation resolved"}, {"measurement": "eating", "setting": "[3]; parents' report at 4 months", "value": "can eat (chew and swallow) food such as banana"}, {"measurement": "responsiveness to verbal requests", "setting": "[3]; parents' report at 4 months", "value": "newly responsive to verbal requests during therapy"}, {"measurement": "salivation down", "setting": "[3]; parents' report at 4 months", "value": 99, "unit": "%"}, {"measurement": "muscle strength", "setting": "[3]; parents' report at 4 months, grasping and lifting rattle", "value": "better muscle strength"}, {"measurement": "ability to swallow", "setting": "[3]; parents' report at 4 months, vs. syringe feeding", "value": "regained ability to swallow using sipper cup"}, {"measurement": "overall patient status", "setting": "[3]; starting within a month of dosing until one year", "value": "the patient has improved"}, {"measurement": "deuterated arachidonic acid in plasma, of total arachidonic acid", "setting": "[4]; 1 month", "value": 0.6, "unit": "%"}, {"measurement": "deuterated arachidonic acid in plasma, of total arachidonic acid", "setting": "[4]; 3 months", "value": 3.0, "unit": "%"}, {"measurement": "time to significant plasma levels and red blood cell (RBC) membrane incorporation", "setting": "[2]", "value": "≤ 1", "unit": "month"}, {"measurement": "cell viability", "setting": "murine FRDA cell model", "value": "protect cells from loss of viability"}, {"measurement": "cell viability", "setting": "[5]", "value": "rescue cells from loss of viability"}]}
{"smiles": "[2H]C([2H])(/C=C\\CC)/C=C\\C([2H])([2H])/C=C\\CCCCCCCC(=O)O", "note": "[D4-ALA, 11,11,14,14-Tetradeutero-cis,cis,cis-9,12,15-Octadecatrienoic acid]", "values": [{"measurement": "cell viability", "setting": "murine FRDA cell model", "value": "protect cells from loss of viability"}, {"measurement": "cell viability", "setting": "[5]", "value": "rescue cells from loss of viability"}, {"measurement": "lipid peroxidation", "setting": "yeast model of FRDA", "value": "decreased lipid peroxidation"}, {"measurement": "lipid peroxidation", "setting": "murine model of FRDA", "value": "prevent lipid peroxidation"}, {"measurement": "protection against oxidative stress", "setting": "H9C2 myoblasts", "value": "protective against oxidative stress"}]}
